Results reported in ChEMBL document CHEMBL1201862, “PubChem BioAssay data set” (2004).
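Results reflect a 48-hour exposure of cells in 96-well plates to compound at five concentrations. Here, GI50 denotes the concentration required for 50% inhibition of growth.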 Active and inactive are the calls of the source. Rule as the data show it: active = GI50 up to about 1.1 µM and inactive = higher.

Tests used:
Test in all cases: inhibition of tumour cell growth, NCI panel, 48 h
[1] = system: 786-0
[2] = system: A498
[3] = system: ACHN
[4] = system: EKVX
[5] = system: Hs-578T
[6] = system: MCF7
[7] = system: MDA-MB-435
[8] = system: MOLT-4
[9] = system: Malme-3M
[10] = system: NCI-H23
[11] = system: NCI-H522
[12] = system: OVCAR-3
[13] = system: OVCAR-5
[14] = system: PC-3
[15] = system: SK-MEL-28
[16] = system: SR
[17] = system: U-251
[18] = system: UO-31
[19] = system: RXF 393
[20] = system: T47D

| SMILES | GI50 [1] | GI50 [2] | GI50 [3] | GI50 [4] | GI50 [5] | GI50 [6] | GI50 [7] | GI50 [8] | GI50 [9] | GI50 [10] | GI50 [11] | GI50 [12] | GI50 [13] | GI50 [14] | GI50 [15] | GI50 [16] | GI50 [17] | GI50 [18] | GI50 [19] | GI50 [20] |
| --- | --- | --- | --- | --- | --- | --- | --- | --- | --- | --- | --- | --- | --- | --- | --- | --- | --- | --- | --- | --- |
| CSc1nc(NC2CC2)c2c(n1)Sc1nc3ccccc3n1N=C2 | 6.08 µM (inactive) | 10.5 µM (inactive) | 11 µM (inactive) | 24.2 µM (inactive) | 0.9 µM (active) | 26.6 µM (inactive) | 35.5 µM (inactive) | > 100 µM (inactive) | 16.7 µM (inactive) | 21.4 µM (inactive) | 16.9 µM (inactive) | 17.3 µM (inactive) | 37.2 µM (inactive) | 29.5 µM (inactive) | > 100 µM (inactive) | > 100 µM (inactive) | 20 µM (inactive) | 16.5 µM (inactive) | – | – |
| Nc1ncnc2c1ncn2C1OC(CO)C(O)C(O)C1O (stereo not given) | > 100 µM (inactive) | > 100 µM (inactive) | > 100 µM (inactive) | > 100 µM (inactive) | > 100 µM (inactive) | > 100 µM (inactive) | > 100 µM (inactive) | > 100 µM (inactive) | > 100 µM (inactive) | > 100 µM (inactive) | > 100 µM (inactive) | > 100 µM (inactive) | > 100 µM (inactive) | > 100 µM (inactive) | > 100 µM (inactive) | > 100 µM (inactive) | > 100 µM (inactive) | > 100 µM (inactive) | – | – |
| CN(CCNC(=O)c1nn(C)c2c1Cc1ccccc1-2)CCNC(=O)c1nn(C)c2c1Cc1ccccc1-2 | 14.5 µM (inactive) | 15.2 µM (inactive) | 14.5 µM (inactive) | 23.2 µM (inactive) | – | 11.1 µM (inactive) | 15.2 µM (inactive) | 12.4 µM (inactive) | 16.3 µM (inactive) | 15.4 µM (inactive) | 16.2 µM (inactive) | 11.4 µM (inactive) | 26.8 µM (inactive) | 18.4 µM (inactive) | 16.1 µM (inactive) | – | 15.6 µM (inactive) | 10.4 µM (inactive) | 14.8 µM (inactive) | 22.5 µM (inactive) |
| CCN1C(=O)C(=C/C=C/C=C2/N(C)c3ccccc3C2(C)C)C(=O)N(CC)C1=S | 42.2 µM (inactive) | > 100 µM (inactive) | 53.6 µM (inactive) | > 100 µM (inactive) | > 100 µM (inactive) | > 100 µM (inactive) | > 100 µM (inactive) | – | > 100 µM (inactive) | > 100 µM (inactive) | > 100 µM (inactive) | 36.4 µM (inactive) | > 100 µM (inactive) | – | – | > 10 µM (inactive) | – | > 100 µM (inactive) | 39.6 µM (inactive) | 82.4 µM (inactive) |
| CCC(O)c1ccc(/N=C/c2ccccc2O)cc1 (stereo not given) | > 100 µM (inactive) | > 100 µM (inactive) | > 100 µM (inactive) | > 100 µM (inactive) | – | > 100 µM (inactive) | > 100 µM (inactive) | > 100 µM (inactive) | > 100 µM (inactive) | > 100 µM (inactive) | > 100 µM (inactive) | > 100 µM (inactive) | > 100 µM (inactive) | > 100 µM (inactive) | > 100 µM (inactive) | 90.2 µM (inactive) | > 100 µM (inactive) | > 100 µM (inactive) | > 100 µM (inactive) | 8.97 µM (inactive) |
| C/C(=N/NC(=S)N(C)CCc1ccccn1)c1cnccn1 | 0.0977 µM (active) | 17.7 µM (inactive) | < 0.01 µM (active) | < 0.01 µM (active) | 2.63 µM (inactive) | < 0.01 µM (active) | 0.867 µM (active) | < 0.01 µM (active) | < 0.01 µM (active) | < 0.01 µM (active) | < 0.01 µM (active) | < 0.01 µM (active) | 0.516 µM (active) | < 0.01 µM (active) | 0.933 µM (active) | 0.018 µM (active) | < 0.01 µM (active) | < 0.0182 µM (active) | 0.465 µM (active) | – |
| O=C1C=C(c2c(-c3ccccc3)[nH]c3ccccc23)C(=O)N1c1ccccc1 | 8.65 µM (inactive) | 10.6 µM (inactive) | 13.9 µM (inactive) | 12.4 µM (inactive) | 4.15 µM (inactive) | 6.19 µM (inactive) | 4.02 µM (inactive) | 25.2 µM (inactive) | 11.5 µM (inactive) | 10.7 µM (inactive) | – | 4.41 µM (inactive) | 14.8 µM (inactive) | 7.78 µM (inactive) | 13.3 µM (inactive) | – | 13.5 µM (inactive) | 13.9 µM (inactive) | 3.8 µM (inactive) | – |
| O=C(NNC(=O)c1csc(NC(=S)NC2CCCCC2)n1)c1ccccc1 | 12.7 µM (inactive) | 38 µM (inactive) | 11.4 µM (inactive) | 1.84 µM (inactive) | – | 2.06 µM (inactive) | 15.6 µM (inactive) | 4.2 µM (inactive) | 15.5 µM (inactive) | 16.7 µM (inactive) | 11.7 µM (inactive) | 4.33 µM (inactive) | 11.9 µM (inactive) | 7.82 µM (inactive) | – | 2.26 µM (inactive) | 3.71 µM (inactive) | 13.7 µM (inactive) | – | 3.37 µM (inactive) |
| Cc1ccc(S(=O)(=O)N/N=C2/C(=O)Nc3c(Cl)cc(Cl)cc32)cc1 | > 100 µM (inactive) | 55.5 µM (inactive) | > 100 µM (inactive) | 5.52 µM (inactive) | 76.6 µM (inactive) | 75 µM (inactive) | 51.6 µM (inactive) | 38.5 µM (inactive) | 91.4 µM (inactive) | 63.1 µM (inactive) | – | 60.3 µM (inactive) | > 100 µM (inactive) | 78.3 µM (inactive) | > 100 µM (inactive) | 34.4 µM (inactive) | 58.1 µM (inactive) | 41.6 µM (inactive) | 43.3 µM (inactive) | – |
| COc1ccc(-c2c(-c3ccc(OC)cc3)n3c(=O)n(C)c(=O)n23)cc1 | > 100 µM (inactive) | 19.4 µM (inactive) | 67.1 µM (inactive) | 34.9 µM (inactive) | – | > 100 µM (inactive) | > 100 µM (inactive) | > 100 µM (inactive) | 91.6 µM (inactive) | > 100 µM (inactive) | > 100 µM (inactive) | 18.2 µM (inactive) | – | 27.4 µM (inactive) | > 100 µM (inactive) | – | > 100 µM (inactive) | 32.3 µM (inactive) | 76.4 µM (inactive) | 20.6 µM (inactive) |
| Oc1ccc([I+]c2ccccc2)cc1O | 65 µM (inactive) | > 100 µM (inactive) | 36.8 µM (inactive) | 53.3 µM (inactive) | 48.6 µM (inactive) | > 10 µM (inactive) | 23 µM (inactive) | 21.9 µM (inactive) | 28.8 µM (inactive) | 26.3 µM (inactive) | 17.8 µM (inactive) | 28.1 µM (inactive) | 59.6 µM (inactive) | 22.3 µM (inactive) | 61.9 µM (inactive) | 19.1 µM (inactive) | 17.4 µM (inactive) | 2.51 µM (inactive) | 52.2 µM (inactive) | – |
| Cc1ccc(S(=O)(=O)N2CCCSCCSCCCN(S(=O)(=O)c3ccc(C)cc3)CC2)cc1 | > 100 µM (inactive) | > 100 µM (inactive) | > 100 µM (inactive) | > 100 µM (inactive) | > 100 µM (inactive) | > 100 µM (inactive) | > 100 µM (inactive) | > 100 µM (inactive) | – | > 100 µM (inactive) | – | > 100 µM (inactive) | > 100 µM (inactive) | – | > 100 µM (inactive) | – | > 100 µM (inactive) | > 100 µM (inactive) | > 100 µM (inactive) | 57.8 µM (inactive) |
| CC1CCOc2ccc(cc2)/C=N\c2ccc(cc2)CCc2ccc(cc2)/N=C\c2ccc(cc2)OCC1 | > 100 µM (inactive) | > 100 µM (inactive) | > 100 µM (inactive) | > 100 µM (inactive) | > 100 µM (inactive) | > 100 µM (inactive) | > 100 µM (inactive) | > 100 µM (inactive) | > 100 µM (inactive) | > 100 µM (inactive) | > 100 µM (inactive) | > 100 µM (inactive) | > 100 µM (inactive) | > 100 µM (inactive) | > 100 µM (inactive) | > 100 µM (inactive) | > 100 µM (inactive) | > 100 µM (inactive) | 35.6 µM (inactive) | – |
| Cc1[nH]nc(C(=O)N/N=C/c2ccccc2Cl)c1/N=N\N(C)C | 5.04 µM (inactive) | 2.19 µM (inactive) | > 54.6 µM (inactive) | 12.4 µM (inactive) | 2.09 µM (inactive) | – | > 100 µM (inactive) | 2.2 µM (inactive) | > 39.4 µM (inactive) | > 25.6 µM (inactive) | > 61.4 µM (inactive) | 20.8 µM (inactive) | 18 µM (inactive) | 5.7 µM (inactive) | > 100 µM (inactive) | 0.171 µM (active) | 14.8 µM (inactive) | > 57.8 µM (inactive) | > 37.9 µM (inactive) | – |
| O=c1cc(CSc2c(-c3ccccc3)c(=O)n(-c3ccccc3)c(=S)n2-c2ccccc2)[nH]c(=O)[nH]1 | > 100 µM (inactive) | > 100 µM (inactive) | > 100 µM (inactive) | > 100 µM (inactive) | – | > 100 µM (inactive) | > 100 µM (inactive) | > 100 µM (inactive) | – | – | – | > 100 µM (inactive) | > 100 µM (inactive) | > 100 µM (inactive) | > 100 µM (inactive) | > 100 µM (inactive) | > 100 µM (inactive) | > 100 µM (inactive) | > 100 µM (inactive) | > 100 µM (inactive) |
